According to patent US8629169B2, “4-substituted-3-phenylsulfanylmethyl-bicyclo[3.1.0]hexane compounds as mGluR 2/3 antagonists” (Eli Lilly and Company, priority 2010, dated 2014):

Columns and labels:
[1] = tested on: mice; assay: mFST alone and in combination with SSRI; type: in vivo, mouse; conditions: Example 12 10 mg/kg p.o.
[2] = target: T1, human mGlu6 receptor (Homo sapiens, UniProt O15303); assay: mGlu6 cAMP antagonist assay (reference agonist L-AP4); type: cell-based; conditions: cAMP format
T1 construct: expressed in transfected cells; host or cells: AV12 cells co-expressing rat EAAT1
From the text: (§1) The relative antagonist potencies of the compounds of the invention for the other human mGlu receptors can be assessed with either a cAMP assay or fluorometric calcium response assay (see for example Fell et al., JPET (in press)). Briefly, individual AV12 cell lines containing the rat EAAT1 glutamate transporter and stably expressing the human mGlu1, 2, 3, 4, 5, 6, & 8 receptors are used for these studies. The mGlu1 and 5 receptors are Gq-coupled, so they naturally signal through phospholipase C, producing a calcium flux response which can be used to measure receptor activation using a Fluorometric Imaging Plate Reader (FLIPR, Molecular Devices). The cell lines expressing the mGlu2, 3, 4, and 8 receptor are designed to express the Gα15 subunit so that these Gi-coupled receptors will generate a calcium flux response similar to the mGlu1 and 5 receptor expressing cell lines. The mGlu6 receptor is tested in a cAMP format using methods analogous to those developed for mGlu2 and mGlu3 above. […]
Antagonist activity in mGlu6 cells is measured using cAMP in a method analogous to that described above for mGlu2 and mGlu3 activity, except that the reference agonist was L-AP4 (Tocris). […] Relative IC50 and EC50 values are calculated from the top-bottom range of the concentration response curve using a four-parameter logistic curve fitting program (ActivityBase v5.3.1.22).

[3] = target: hERG channel (Homo sapiens, UniProt Q12809); assay: Off-target activity, known assay methods, hERG
[4] = target: T2, human mGlu4 receptor (Homo sapiens, UniProt Q14833); assay: FLIPR calcium antagonist assay for mGlu receptor selectivity, mGlu4; type: cell-based; conditions: inhibition of EC90 glutamate response, read-out: mGlu4 % inhib. @12.5 μM
T2 construct: expressed in transfected cells; host or cells: AV12 cells co-expressing rat EAAT1 and Galpha15
T2 sequence (Q14833 33-912): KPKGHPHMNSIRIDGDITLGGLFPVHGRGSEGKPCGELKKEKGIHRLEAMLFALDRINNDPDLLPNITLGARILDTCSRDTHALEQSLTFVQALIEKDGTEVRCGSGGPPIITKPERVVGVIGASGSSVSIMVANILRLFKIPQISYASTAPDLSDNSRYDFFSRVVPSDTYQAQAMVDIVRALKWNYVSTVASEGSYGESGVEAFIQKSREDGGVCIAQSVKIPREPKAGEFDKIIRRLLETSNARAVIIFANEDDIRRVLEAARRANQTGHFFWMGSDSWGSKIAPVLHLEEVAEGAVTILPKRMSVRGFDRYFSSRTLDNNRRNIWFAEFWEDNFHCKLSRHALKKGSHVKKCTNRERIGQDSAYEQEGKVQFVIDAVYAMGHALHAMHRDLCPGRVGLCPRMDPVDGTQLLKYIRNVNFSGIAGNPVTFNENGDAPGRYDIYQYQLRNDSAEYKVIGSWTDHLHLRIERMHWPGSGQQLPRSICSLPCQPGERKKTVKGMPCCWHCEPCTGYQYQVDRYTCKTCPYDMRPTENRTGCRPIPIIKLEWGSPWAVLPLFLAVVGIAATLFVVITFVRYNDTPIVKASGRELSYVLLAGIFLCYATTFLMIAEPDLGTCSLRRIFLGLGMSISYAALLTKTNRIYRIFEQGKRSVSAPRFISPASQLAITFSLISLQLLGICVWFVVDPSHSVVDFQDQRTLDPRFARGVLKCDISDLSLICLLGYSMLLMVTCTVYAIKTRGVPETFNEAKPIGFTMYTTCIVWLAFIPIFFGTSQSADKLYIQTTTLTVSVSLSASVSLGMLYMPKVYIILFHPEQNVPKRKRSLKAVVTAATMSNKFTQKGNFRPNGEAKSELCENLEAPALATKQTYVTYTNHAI
From the text: as §1, with “Devices).” for “Devices). The cell lines expressing the mGlu2, 3, 4, and 8 receptor are designed to express the Gα15 subunit so that these Gi-coupled receptors will generate a calcium flux response similar to the mGlu1 and 5 receptor expressing cell lines. The mGlu6 receptor is tested in a cAMP format using methods analogous to those developed for mGlu2 and mGlu3 above.”
(§2) Intracellular calcium levels are monitored using FLIPR before and after the addition of test compounds and Fluo-3 AM (Invitrogen) or Calcium 4 (Molecular Devices) dye, depending on the cell line. […] The results are analyzed using GraphPad Prism v4.03 to calculate the concentrations of glutamate needed to induce the EC90 (antagonist assay) and EC10 (potentiator assay) responses.
(§3) Compounds are tested at each mGlu receptor in a two-addition FLIPR assay using a 10-point concentration response profile starting at a final concentration of 25 μM for the agonist assay and 12.5 μM for the potentiator and antagonist assays. […] Agonist effects are quantified as percent stimulation induced by compound alone relative to the maximal glutamate response. […]

[5] = tested on: mGlu2+/+ and mGlu2−/− mice; assay: mFST in mGlu2 knock-out mice and +/+ littermates; conditions: 10 mg/kg, i.p., 30 min prior
Experimental: Briefly, male NIH-Swiss mice (Harlan Sprague-Dawley, Indianapolis, Ind.) weighing between 25-30 g are used. Group housed animals are removed from the vivarium to the testing area in their own cages and allowed to adapt to the new environment for at least 1 hour before testing. […] Mice are placed in a cylinder (diameter: 10 cm; height: 25 cm) filled with 6 cm of water (22-25° C.) for 6 min. The duration of immobility during the last 4 min. of the 6 min. period of the test was scored. A mouse is recorded as immobile when floating motionless or making only those movements necessary to keep its head above water.
In other experiments, mice with receptor deletions (mGlu2 knock-out mice) are studied; these mice are bred by heterozygote×heterozygote breeding and used as littermates for −/− and +/+ mouse comparisons (Taconic Farms).

[6] = tested on: male NIH-Swiss mice; assay: Forced-swim test in mice (mFST); type: in vivo, mouse; conditions: for ED60 (mg/kg): immobility, last 4 min of 6 min; for Maximal Decrease (1 − compound/control) * 100%: immobilization time
[7] = target: T3, M2 muscarinic receptor (Homo sapiens, UniProt P08172); assay: Off-target activity, known assay methods, M2
T3 sequence (P08172 1-466): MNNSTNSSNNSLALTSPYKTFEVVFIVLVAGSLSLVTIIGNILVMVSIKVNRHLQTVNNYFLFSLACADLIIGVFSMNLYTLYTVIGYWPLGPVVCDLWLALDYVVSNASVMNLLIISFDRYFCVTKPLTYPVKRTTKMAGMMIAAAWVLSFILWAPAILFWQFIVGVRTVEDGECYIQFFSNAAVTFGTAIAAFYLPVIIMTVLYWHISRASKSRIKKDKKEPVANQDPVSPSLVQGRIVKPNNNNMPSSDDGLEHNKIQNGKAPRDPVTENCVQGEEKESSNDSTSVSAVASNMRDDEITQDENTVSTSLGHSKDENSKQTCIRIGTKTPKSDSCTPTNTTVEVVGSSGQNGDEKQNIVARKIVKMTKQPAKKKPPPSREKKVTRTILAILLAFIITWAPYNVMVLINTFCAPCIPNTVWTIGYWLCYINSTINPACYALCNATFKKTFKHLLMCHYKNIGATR

[8] = target: iGluR5 (Homo sapiens, UniProt P39086); assay: Off-target activity, known assay methods, iGluR5
[9] = target: 5-HT2B serotonin receptor (Homo sapiens, UniProt P41595); assay: Off-target activity, known assay methods, 5-HT2B
Sequence of 5-HT2B serotonin receptor (P41595 whole entry): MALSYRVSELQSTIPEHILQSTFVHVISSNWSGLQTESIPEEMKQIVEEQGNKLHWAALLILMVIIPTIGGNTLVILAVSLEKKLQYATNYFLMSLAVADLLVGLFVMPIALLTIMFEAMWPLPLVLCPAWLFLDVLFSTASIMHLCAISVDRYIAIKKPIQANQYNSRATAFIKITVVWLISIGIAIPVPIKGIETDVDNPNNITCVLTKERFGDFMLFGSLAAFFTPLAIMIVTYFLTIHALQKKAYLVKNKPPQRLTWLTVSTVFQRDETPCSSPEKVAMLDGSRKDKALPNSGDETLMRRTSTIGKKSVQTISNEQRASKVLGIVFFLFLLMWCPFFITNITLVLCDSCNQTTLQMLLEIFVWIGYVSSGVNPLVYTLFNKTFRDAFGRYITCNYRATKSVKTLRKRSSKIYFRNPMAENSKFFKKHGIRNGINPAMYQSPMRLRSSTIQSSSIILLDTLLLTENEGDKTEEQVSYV

[10] = target: T4, human mGlu3 receptor (Homo sapiens, UniProt Q14832); assay: mGlu3 receptor cAMP antagonist assay; type: cell-based; conditions: reversal of DCG IV (EC90) inhibition of forskolin-stimulated cAMP; relative IC50
T4 construct: expressed in transfected cells; host or cells: AV12 cells co-expressing rat EAAT1
T4 sequence (Q14832 23-879): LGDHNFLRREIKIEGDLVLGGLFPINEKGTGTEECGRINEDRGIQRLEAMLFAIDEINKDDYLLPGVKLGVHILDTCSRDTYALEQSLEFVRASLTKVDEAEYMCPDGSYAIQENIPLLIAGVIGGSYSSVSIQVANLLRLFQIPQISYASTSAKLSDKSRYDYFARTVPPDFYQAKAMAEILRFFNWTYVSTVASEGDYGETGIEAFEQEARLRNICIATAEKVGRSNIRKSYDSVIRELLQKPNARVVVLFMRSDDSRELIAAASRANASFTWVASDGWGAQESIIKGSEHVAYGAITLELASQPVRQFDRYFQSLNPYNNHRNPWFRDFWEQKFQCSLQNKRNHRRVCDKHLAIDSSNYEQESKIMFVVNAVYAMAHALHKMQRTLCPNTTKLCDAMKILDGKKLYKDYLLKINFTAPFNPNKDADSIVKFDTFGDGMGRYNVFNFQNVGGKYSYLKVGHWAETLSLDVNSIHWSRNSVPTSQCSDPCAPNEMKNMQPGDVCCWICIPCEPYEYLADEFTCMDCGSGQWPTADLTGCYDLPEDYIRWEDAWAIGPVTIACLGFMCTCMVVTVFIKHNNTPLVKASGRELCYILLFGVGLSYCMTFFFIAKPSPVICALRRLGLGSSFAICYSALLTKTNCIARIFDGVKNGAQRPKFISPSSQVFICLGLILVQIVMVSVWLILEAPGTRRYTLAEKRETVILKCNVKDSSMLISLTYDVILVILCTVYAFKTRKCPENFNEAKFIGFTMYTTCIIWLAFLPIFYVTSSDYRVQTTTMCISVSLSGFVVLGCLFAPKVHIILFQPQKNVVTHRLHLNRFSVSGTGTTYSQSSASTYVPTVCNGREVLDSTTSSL
Experimental: Antagonist activity is assayed in recombinant AV12 cells stably expressing human mGlu2 or mGlu3 receptors and the rat glutamate transporter EAAT1 (Excitatory Amino Acid Transporter 1). The cell lines are maintained by culturing in DMEM with high glucose and pyridoxine hydrochloride supplemented with 5% dialyzed fetal bovine serum (FBS), 1 mM sodium pyruvate, 1 mM HEPES and 1 mM L-glutamine; geneticin and hygromycin B are used as selection antibiotics.
Reversal of the inhibition of forskolin-stimulated cAMP production by test compounds is measured using homogeneous time resolved fluorescence technology (HTRF; Cisbio cat #62AM4PEB). The medium is removed and the cells are incubated with 100 μl cAMP stimulation buffer (STIM) for 30 minutes at 37° C. […] Cells are incubated at 37° C. for 20 minutes. To measure the cAMP levels, cAMP-d2 conjugate and anti cAMP-cryptate conjugate in lysis buffer are incubated with the treated cells at room temperature for 1 hour (mGlu2) or 1.5 hour (mGlu3). […] The raw data are converted to cAMP amount (pmole/well) using a cAMP standard curve generated for each experiment. Relative IC50 values are calculated from the top-bottom range of the concentration response curve using a four-parameter logistic curve fitting program (ActivityBase v5.3.1.22).

[11] = target: T5, human mGlu8 receptor (Homo sapiens, UniProt O00222); assay: FLIPR calcium antagonist assay for mGlu receptor selectivity, mGlu8; type: cell-based
T5 construct: expressed in transfected cells; host or cells: AV12 cells co-expressing rat EAAT1 and Galpha15
T5 sequence (O00222 34-908): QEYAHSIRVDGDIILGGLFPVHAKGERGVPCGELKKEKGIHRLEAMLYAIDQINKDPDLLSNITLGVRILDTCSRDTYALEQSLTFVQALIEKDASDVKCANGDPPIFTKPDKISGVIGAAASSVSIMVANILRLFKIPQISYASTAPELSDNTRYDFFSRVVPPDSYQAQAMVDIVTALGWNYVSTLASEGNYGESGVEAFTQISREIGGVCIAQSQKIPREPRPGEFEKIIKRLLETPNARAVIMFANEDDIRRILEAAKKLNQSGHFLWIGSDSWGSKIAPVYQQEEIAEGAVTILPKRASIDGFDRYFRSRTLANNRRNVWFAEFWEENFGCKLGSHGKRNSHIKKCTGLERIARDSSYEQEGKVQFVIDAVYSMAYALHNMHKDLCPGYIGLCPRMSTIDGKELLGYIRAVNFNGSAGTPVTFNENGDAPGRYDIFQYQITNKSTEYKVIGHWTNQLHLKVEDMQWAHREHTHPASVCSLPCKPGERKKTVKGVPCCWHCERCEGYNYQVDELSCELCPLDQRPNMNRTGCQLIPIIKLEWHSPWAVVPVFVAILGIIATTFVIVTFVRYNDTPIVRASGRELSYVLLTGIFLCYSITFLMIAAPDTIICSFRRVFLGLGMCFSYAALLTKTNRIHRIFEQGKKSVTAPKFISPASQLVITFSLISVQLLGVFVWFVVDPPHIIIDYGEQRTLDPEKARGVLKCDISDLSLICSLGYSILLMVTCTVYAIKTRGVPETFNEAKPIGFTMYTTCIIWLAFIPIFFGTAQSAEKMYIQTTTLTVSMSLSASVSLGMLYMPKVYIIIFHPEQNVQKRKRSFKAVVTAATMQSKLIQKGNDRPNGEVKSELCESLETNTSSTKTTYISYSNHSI
From the text: The relative antagonist potencies of the compounds of the invention for the other human mGlu receptors can be assessed with either a cAMP assay or fluorometric calcium response assay (see for example Fell et al., JPET (in press)). Briefly, individual AV12 cell lines containing the rat EAAT1 glutamate transporter and stably expressing the human mGlu1, 2, 3, 4, 5, 6, & 8 receptors are used for these studies. The mGlu1 and 5 receptors are Gq-coupled, so they naturally signal through phospholipase C, producing a calcium flux response which can be used to measure receptor activation using a Fluorometric Imaging Plate Reader (FLIPR, Molecular Devices). The cell lines expressing the mGlu2, 3, 4, and 8 receptor are designed to express the Gα15 subunit so that these Gi-coupled receptors will generate a calcium flux response similar to the mGlu1 and 5 receptor expressing cell lines. The mGlu6 receptor is tested in a cAMP format using methods analogous to those developed for mGlu2 and mGlu3 above. These cell lines are maintained as previously described except that amounts of L-glutamine and selection agents (geneticin, hygromycin B, zeocin, and blasticidin) may vary depending on the cell line. Confluent cultures are passaged biweekly.
Intracellular calcium levels are monitored using FLIPR before and after the addition of test compounds and Fluo-3 AM (Invitrogen) or Calcium 4 (Molecular Devices) dye, depending on the cell line. Cells are plated 24 hours prior to assay in a variable concentration of glutamine and a variable density of cells per well, depending on the cell line. The medium is removed and the cells are incubated with 8 μM of dye (50 μl per well) for 90 or 120 minutes (depending on cell line) at 25° C. […] The results are analyzed using GraphPad Prism v4.03 to calculate the concentrations of glutamate needed to induce the EC90 (antagonist assay) and EC10 (potentiator assay) responses.
Compounds are tested at each mGlu receptor in a two-addition FLIPR assay using a 10-point concentration response profile starting at a final concentration of 25 μM for the agonist assay and 12.5 μM for the potentiator and antagonist assays. […] Agonist effects are quantified as percent stimulation induced by compound alone relative to the maximal glutamate response. Antagonist effects are quantified by calculating the percent inhibition of the EC90 glutamate response caused by the compound. Potentiation effects are quantified as percent increase in the presence of an EC10 response in glutamate relative to the ECmax response. All data are calculated as relative IC50 or EC50 values using a four-parameter logistic curve fitting program (ActivityBase v5.3.1.22).

[12] = target: T6, human mGlu5 receptor (Homo sapiens, UniProt P41594); assay: FLIPR calcium antagonist assay for mGlu receptor selectivity, mGlu5; type: cell-based; conditions: inhibition of EC90 glutamate response, read-out: mGlu5 % inhib. @12.5 μM
T6 construct: expressed in transfected cells; host or cells: AV12 cells co-expressing rat EAAT1
From the text: as §1, with “Devices).” for “Devices). The cell lines expressing the mGlu2, 3, 4, and 8 receptor are designed to express the Gα15 subunit so that these Gi-coupled receptors will generate a calcium flux response similar to the mGlu1 and 5 receptor expressing cell lines. The mGlu6 receptor is tested in a cAMP format using methods analogous to those developed for mGlu2 and mGlu3 above.”
as §2, §3

[13] = target: T7, human mGlu1 receptor (Homo sapiens, UniProt Q13255); assay: FLIPR calcium antagonist assay for mGlu receptor selectivity, mGlu1; type: cell-based; conditions: inhibition of EC90 glutamate response, read-out: mGlu1 % inhib. @12.5 μM
T7 construct: expressed in transfected cells; host or cells: AV12 cells co-expressing rat EAAT1
T7 sequence (Q13255 19-1194): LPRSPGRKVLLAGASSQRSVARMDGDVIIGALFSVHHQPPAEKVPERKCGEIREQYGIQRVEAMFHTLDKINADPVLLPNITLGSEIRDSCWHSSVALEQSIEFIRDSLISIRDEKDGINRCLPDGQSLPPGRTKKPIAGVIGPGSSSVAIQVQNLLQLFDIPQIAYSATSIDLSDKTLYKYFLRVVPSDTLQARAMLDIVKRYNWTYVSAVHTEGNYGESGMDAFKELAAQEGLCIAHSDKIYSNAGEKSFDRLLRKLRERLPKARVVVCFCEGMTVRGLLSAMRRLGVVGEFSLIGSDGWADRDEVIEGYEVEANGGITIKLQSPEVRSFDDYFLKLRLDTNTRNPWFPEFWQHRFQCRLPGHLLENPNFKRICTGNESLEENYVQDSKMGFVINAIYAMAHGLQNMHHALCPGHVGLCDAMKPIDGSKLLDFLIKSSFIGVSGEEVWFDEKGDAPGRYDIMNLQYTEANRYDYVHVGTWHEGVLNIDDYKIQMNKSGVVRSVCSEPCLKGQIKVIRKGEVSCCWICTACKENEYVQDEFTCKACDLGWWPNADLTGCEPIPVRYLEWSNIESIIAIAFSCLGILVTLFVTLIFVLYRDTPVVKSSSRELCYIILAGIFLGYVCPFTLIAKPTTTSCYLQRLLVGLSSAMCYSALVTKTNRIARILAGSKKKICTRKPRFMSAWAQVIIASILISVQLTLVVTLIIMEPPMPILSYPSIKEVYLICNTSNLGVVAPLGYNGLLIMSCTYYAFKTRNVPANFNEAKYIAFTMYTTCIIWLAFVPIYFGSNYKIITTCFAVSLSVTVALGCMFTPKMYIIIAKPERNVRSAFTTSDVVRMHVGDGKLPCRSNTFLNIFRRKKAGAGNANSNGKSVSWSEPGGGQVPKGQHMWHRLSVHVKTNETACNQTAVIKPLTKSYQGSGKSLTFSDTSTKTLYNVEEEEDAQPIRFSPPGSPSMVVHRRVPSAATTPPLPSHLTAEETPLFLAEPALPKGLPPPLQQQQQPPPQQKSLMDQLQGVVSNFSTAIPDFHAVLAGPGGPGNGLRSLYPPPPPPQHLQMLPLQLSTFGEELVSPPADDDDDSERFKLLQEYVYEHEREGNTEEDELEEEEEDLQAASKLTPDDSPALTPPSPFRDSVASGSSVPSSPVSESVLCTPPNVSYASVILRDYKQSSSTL
From the text: as §1, with “Devices).” for “Devices). The cell lines expressing the mGlu2, 3, 4, and 8 receptor are designed to express the Gα15 subunit so that these Gi-coupled receptors will generate a calcium flux response similar to the mGlu1 and 5 receptor expressing cell lines. The mGlu6 receptor is tested in a cAMP format using methods analogous to those developed for mGlu2 and mGlu3 above.”
as §2, §3

[14] = target: 5-HT2A serotonin receptor (Homo sapiens, UniProt P28223); assay: Off-target activity, known assay methods, 5-HT2A
Sequence of 5-HT2A serotonin receptor (P28223 whole entry): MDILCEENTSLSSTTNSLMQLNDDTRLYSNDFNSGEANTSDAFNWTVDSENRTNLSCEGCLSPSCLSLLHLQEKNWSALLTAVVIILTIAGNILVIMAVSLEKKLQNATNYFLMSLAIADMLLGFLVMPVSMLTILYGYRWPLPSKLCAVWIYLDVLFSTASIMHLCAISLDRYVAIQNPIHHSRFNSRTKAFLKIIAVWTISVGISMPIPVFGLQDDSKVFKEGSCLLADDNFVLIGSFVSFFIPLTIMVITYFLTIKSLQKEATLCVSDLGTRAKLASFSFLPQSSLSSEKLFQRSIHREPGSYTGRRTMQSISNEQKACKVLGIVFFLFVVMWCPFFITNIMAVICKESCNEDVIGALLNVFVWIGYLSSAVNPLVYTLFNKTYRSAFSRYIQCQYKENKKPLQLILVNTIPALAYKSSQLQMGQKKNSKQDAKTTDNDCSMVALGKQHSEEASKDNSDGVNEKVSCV

[15] = tested on: wild type, mGlu2(−/−), mGlu3(−/−) and double knockout mice; assay: Wakefulness in mGlu2 and/or mGlu3 receptor deletion mice; type: in vivo, mouse; conditions: 10 mg/kg, i.p.
From the text: Additionally, in three separate experiments, mice with single mGlu2(−/−), single mGlu3(−/−), or double mGlu2(−/−) mGlu3(−/−) receptor deletions are studied.

[16] = fluoxetine experiment, fluoxetine 10 mg/kg i.p.
[17] = citalopram experiment, citalopram 1 mg/kg i.p.

CNCCC(Oc1ccc(C(F)(F)F)cc1)c1ccccc1 (stereo not shown) [Fluoxetine, fluoxetine, reference compound]
Immobilization Time [1, 16]: 118 s
Maximal Decrease (1 − compound/control) * 100% [1, 16]: 31.5%

Cl.N[C@]1(C(=O)O)[C@@H]2[C@@H](C(=O)O)[C@@H]2[C@H](O)[C@H]1CSc1ccc(F)c(F)c1 [Example 1, (1S,2R,3S,4S,5R,6R)-2-Amino-3-{[(3,4-difluorophenyl)sulfanyl]methyl}-4-hydroxybicyclo[3.1.0]hexane-2,6-dicarboxylic acid hydrochloride]
IC50 [2]: 1720 nM
activity at the hERG channel [3]: no appreciable activity
inhibition at 12.5 µM [4]: 17.9%
immobility time in mGlu2+/+ mice [5]: significantly decrease immobility time
ED60 (mg/kg) ([6]; i.p.): 8.0 (i.p.) mg/kg
Maximal Decrease (1 − compound/control) * 100% ([6]; i.p.): 36.1%
activity at muscarinic receptor M2 [7]: no appreciable activity
activity at iGluR5 [8]: no appreciable activity
activity at serotonin receptor 5-HT2B [9]: no appreciable activity
IC50 [10]: 6.2 ± 2.2 nM
inhibition at 12.5 µM ([11]; 12.5 μM, inhibition of EC90 glutamate response, read-out: mGlu8 % inhib. @12.5 μM): 47%
IC50 ([11]; FLIPR antagonist, in brackets under % inhib.): 4970 nM
inhibition at 12.5 µM [12]: -2%
inhibition at 12.5 µM [13]: 6.3%
activity at serotonin receptor 5-HT2A [14]: no appreciable activity
wakefulness in double knockout mGlu2(−/−) mGlu3(−/−) mice ([15]; double knockout): not significantly increase wakefulness
wakefulness in single knockout mGlu2(−/−) mice ([15]; mGlu2(−/−), though at a reduced level): significantly increase wakefulness
wakefulness in single knockout mGlu3(−/−) mice ([15]; mGlu3(−/−), though at a reduced level): significantly increase wakefulness
wakefulness in wild type mice ([15]; wild type): significantly increase wakefulness

CN(C)CCCC1(c2ccc(F)cc2)OCc2cc(C#N)ccc21 (stereo not shown) [Citalopram, citalopram, reference compound]
Immobilization Time [1, 17]: 102 s
Maximal Decrease (1 − compound/control) * 100% [1, 17]: 42.1%

CC(C)OC(=O)OCOC(=O)[C@H]1[C@@H]2[C@H](O)[C@@H](CSc3ccc(F)c(Cl)c3)[C@@](N)(C(=O)OCOC(=O)OC(C)C)[C@H]12.Cl [Example 22, Bis({[(1-methylethoxy)carbonyl]oxy}methyl) (1S,2R,3S,4S,5R,6R)-2-amino-3-{[(3-chloro-4-fluorophenyl)sulfanyl]methyl}-4-hydroxybicyclo[3.1.0]hexane-2,6-dicarboxylate hydrochloride]
ED60 (mg/kg) ([6]; p.o.): 20.5 (p.o.) mg/kg
Maximal Decrease (1 − compound/control) * 100% ([6]; p.o.): 50.1%
